Broadly, the IC50 is the point on the concentration scale where inhibition reaches its midpoint.

Like-named read-outs stand apart in the source and are kept apart here.

Assay [1] addresses T1, SHP2 wild-type phosphatase (recombinantly expressed full-length SHP2, aa 1-593) (Homo sapiens, UniProt Q06124).
T1 sequence (Q06124 1-593): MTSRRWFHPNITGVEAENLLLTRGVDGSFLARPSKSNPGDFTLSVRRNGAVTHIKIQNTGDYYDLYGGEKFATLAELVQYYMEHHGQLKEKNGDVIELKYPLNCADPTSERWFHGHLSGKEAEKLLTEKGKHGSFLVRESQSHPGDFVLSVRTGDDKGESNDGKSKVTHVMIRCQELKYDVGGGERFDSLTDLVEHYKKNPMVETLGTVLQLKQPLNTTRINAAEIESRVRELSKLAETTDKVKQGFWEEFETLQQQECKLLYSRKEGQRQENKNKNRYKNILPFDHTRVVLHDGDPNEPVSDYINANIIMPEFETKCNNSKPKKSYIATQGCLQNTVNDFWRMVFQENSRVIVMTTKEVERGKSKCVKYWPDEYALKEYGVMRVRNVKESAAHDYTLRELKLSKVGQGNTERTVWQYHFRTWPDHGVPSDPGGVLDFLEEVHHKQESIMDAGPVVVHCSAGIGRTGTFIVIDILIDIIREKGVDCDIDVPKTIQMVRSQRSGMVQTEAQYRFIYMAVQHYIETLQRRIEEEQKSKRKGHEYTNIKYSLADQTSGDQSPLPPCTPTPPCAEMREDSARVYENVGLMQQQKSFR
As to the kind of experiment: In vitro activity on SHP2 wild-type phosphatase (DiFMUP fluorescence).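 Also: enzyme preincubated at room temperature, then DiFMUP reaction run at room temperature and halted with SDS, potency derived from a logistic curve fit.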 Conditions: wild-type full-length SHP2, activated polypeptide IRS1 0.5 nM, DiFMUP 30 μM.
Procedure: 0.2 nM recombinantly expressed full-length SHP2 (aa 1-593), 0.5 nM activated polypeptide IRS1 with double phosphorylation sites (sequence: H2N-LN(pY)IDLDLY(dPEG8)LST(pY)ASINFQK-amide) and a series of concentrations of the test compound (final concentrations were 1 μM, 0.3 μM, 0.1 μM, 0.03 μM, 0.01 μM, 0.003 μM, 0.001 μM, 0.0003 μM, 0.0001 μM, 0.00003 μM) were added to the phosphatase reaction solution (60 mM HEPES, pH 7.5 0.005% Brij-35, 75 mM NaCl, 75 mM KCl, 1 mM EDTA, 5 mM DTT). The reaction solution was shaked (350 rpm) at room temperature for 30 minutes. The reaction substrate DiFMUP with a final concentration of 30 μM was added, and the reaction solution was reacted at room temperature for 30 minutes. The phosphatase reaction was stopped by adding 5 μL of stop solution (60 mM HEPES, pH 7.5, 0.2% SDS). Ex358 nm/Em455 fluorescence value was read on the fluorescence plate reader MD SpectraMax.
The IC50 value of the compound was calculated using the four-parameter logit method. In the following formula, x represents the logarithmic form of the compound concentration, and F(x) represents the effect value (the inhibition rate of cell proliferation under the given concentration condition): F(x)=((A−D)/(1+((x/C)^B)))+D. A, B, C and D are four parameters. Different concentrations correspond to different inhibition rates, based on which an inverse curve was plotted, and the IC50 of the inhibitor was calculated from the curve. The IC50 of the compound was calculated with Primer premier 6.0.

The test system of another assay is p-ERK in KYSE-520 cells. As to the kind of experiment: Determination of p-ERK in KYSE-520 cells (HTRF). The format is cell-based. How it is done:
KYSE-520 cells (Nanjing Cobioer Biosciences CO., Ltd.) in the logarithmic growth phase were inoculated (30,000 cells/well) in 1640 medium containing 10% of FBS, and adhered in a 96-well plate overnight (5% CO2, 37° C.). […] The cell culture was stopped with cell lysate. The level of phosphorylated ERK in KYSE-520 cells was determined by a method based on homogeneous time-resolved fluorescence HTRF (Cisbio, 64ERKPEG). The fluorescence values (Ex337 nm/Em625/665 nm) were read on the compatible HTRF reader (MD SpectraMax).

The next assay deals with KYSE-520 cells. As to the kind of experiment: KYSE-520 cell proliferation experiment (CellTiter-Glo, 7 days). The assay is classed as cell-based. How it is done:
The treated cell plate was incubated at 37° C., 5% CO2 for 7 days. CellTiter-Glo (Promega, G7573) was used to determine the number of viable cells in each well of the treated plate. 100 μL of the detection reagent was added to each well, and the plate was incubated at room temperature for 10 minutes. Then, the […] in each well was measured with Envision plate reader (PerkinElmer). […] The IC50 value was further calculated as the compound concentration required for 50% proliferation inhibition in the best-fit curve with […].
On the technique in general: Cellular ATP, detected with luciferase, serves as a proxy for viable cell number.

Consider `N[C@@H]1CCCC12CCN(c1ncc(Sc3cccnc3C(F)(F)F)c3nccn13)CC2` [Example 16, (R)-8-(8-((2-(Trifluoromethyl)pyridin-3-yl)thio)imidazo[1,2-c]pyrimidin-5-yl)-8-azaspiro[4.5]decan-1-amine], for which the IC50 in assay [1] is 6.8 nM; in the assay with p-ERK in KYSE-520 cells (Homo sapiens, KYSE-520, 2 h), 166 nM; in the assay with KYSE-520 cells (Homo sapiens), 548 nM.
With `Nc1nc(N2CCC3(CC2)Cc2ncccc2[C@H]3N)n2ccnc2c1Sc1cccnc1C(F)(F)F` [Example 28, (S)-1′-(7-Amino-8-((2-(trifluoromethyl)pyridin-3-yl)thio)imidazo[1,2-c]pyrimidin-5-yl)-5,7-dihydrospiro[cyclopenta[b]pyridine-6,4′-piperidin]-5-amine], the half-maximal inhibitory concentration (IC50) in assay [1] was determined as 2.6 nM; in the assay with p-ERK in KYSE-520 cells (Homo sapiens, KYSE-520, 2 h), 8.6 nM; in the assay on KYSE-520 cells (Homo sapiens), 21.6 nM.
With `Nc1nccc(Sc2c(N)nc(N3CCC4(CC3)Cc3ccccc3[C@H]4N)n3ccnc23)c1Cl` [Example 29, (S)-1′-(7-Amino-8-((2-amino-3-chloropyridin-4-yl)thio)imidazo[1,2-c]pyrimidin-5-yl)-1,3-dihydrospiro[indene-2,4′-piperidin]-1-amine], the results for the concentration for half-maximal inhibition (IC50) (in assay [1]; in the assay on KYSE-520 cells (Homo sapiens)) were 1.3 nM and 14 nM, respectively.
For `CNc1ncccc1Sc1cnc(N2CCC3(CC2)Cc2ncccc2[C@H]3N)n2ccnc12` [Example 38, (S)-1′-(8-((2-(Methylamino)pyridin-3-yl)thio)imidazo[1,2-c]pyrimidin-5-yl)-5,7-dihydrospiro[cyclopenta[b]pyridine-6,4′-piperidin]-5-amine], in assay [1], the IC50 was found to be 10.9 nM.
With `Cc1nc(N2CCC3(CC2)CO[C@@H](C)[C@H]3N)n2ccnc2c1-c1cccc(Cl)c1Br` [Example 12, (3S,4S)-8-(8-(2-Bromo-3-chlorophenyl)-7-methylimidazo[1,2-c]pyrimidin-5-yl)-3-methyl-2-oxa-8-azaspiro[4.5]decan-4-amine], the IC50 in the assay with p-ERK in KYSE-520 cells (Homo sapiens, KYSE-520, 2 h) came to 59.2 nM; in the assay on KYSE-520 cells (Homo sapiens), 346 nM.
Turning to `Cc1nc(N2CCC3(CC2)CO[C@@H](C)[C@H]3N)n2ccnc2c1-c1c(F)cccc1Cl` [Example 10, (3S,4S)-8-(8-(2-Chloro-6-fluorophenyl)-7-methylimidazo[1,2-c]pyrimidin-5-yl)-3-methyl-2-oxa-8-azaspiro[4.5]decan-4-amine], in assay [1], the IC50 worked out at 111 nM.
On to `Nc1nc(N2CCC3(CCC[C@H]3N)CC2)n2ccnc2c1-c1cccc(Cl)c1Cl` [Example 20, (R)-8-(7-Amino-8-(2,3-dichlorophenyl)imidazo[1,2-c]pyrimidin-5-yl)-8-azaspiro[4.5]decan-1-amine], for which the IC50 in assay [1] was 2 nM; in the assay with p-ERK in KYSE-520 cells (Homo sapiens, KYSE-520, 2 h), 85.9 nM; in the assay with KYSE-520 cells (Homo sapiens) it was 178 nM.
In the case of `Cc1nc(N2CCC3(CC2)Cc2ncccc2[C@H]3N)n2ccnc2c1-c1cccc(Cl)c1Cl` [Example 33, (S)-1′-(8-(2,3-Dichlorophenyl)-7-methylimidazo[1,2-c]pyrimidin-5-yl)-5,7-dihydrospiro[cyclopenta[b]pyridine-6,4′-piperidin]-5-amine], in assay [1], the IC50 stood at 1.2 nM.
Regarding `CC1(N)CCN(c2ncc(Sc3ccnc(F)c3Cl)c3nncn23)CC1` [Example 19, 1-(8-((3-Chloro-2-fluoropyridin-4-yl)thio)-[1,2,4]triazolo[4,3-c]pyrimidin-5-yl)-4-methylpiperidin-4-amine], in assay [1], the 50% inhibitory concentration (IC50) turned out to be 555 nM.
`COc1nccc(-c2c(C)nc(N3CCC4(CCC[C@H]4N)CC3)n3ccnc23)c1Cl` [Example 6, (R)-8-(8-(3-Chloro-2-methoxypyridin-4-yl)-7-methylimidazo[1,2-c]pyrimidin-5-yl)-8-azaspiro[4.5]decan-1-amine]: the IC50 in assay [1] worked out at 26.9 nM.
On the same count and under the same terms, then `CC1(N)CCN(c2ncc(Sc3ccnc(F)c3Cl)c3nccn23)CC1` [Example 14, 1-(8-((3-Chloro-2-fluoropyridin-4-yl)thio)imidazo[1,2-c]pyrimidin-5-yl)-4-methylpiperidin-4-amine], with 232 nM.
Take `N[C@@H]1c2ccccc2CC12CCN(c1ncc(Sc3cccnc3C(F)(F)F)c3nccn13)CC2` [Example 31, (S)-1′-(8-((2-(Trifluoromethyl)pyridin-3-yl)thio)imidazo[1,2-c]pyrimidin-5-yl)-1,3-dihydro spiro[indene-2,4′-piperidin]-1-amine]: the concentration for half-maximal inhibition (IC50) in assay [1] was 3.4 nM; in the assay on p-ERK in KYSE-520 cells (Homo sapiens, KYSE-520, 2 h), 6.5 nM; in the assay on KYSE-520 cells (Homo sapiens) it was 52 nM.
On to `COc1nccc(Sc2cnc(N3CCC4(CC3)Cc3ncccc3[C@H]4N)n3ccnc23)c1Cl` [Example 35, (S)-1′-(8-((3-Chloro-2-methoxypyridin-4-yl)thio)imidazo[1,2-c]pyrimidin-5-yl)-5,7-dihydrospiro[cyclopenta[b]pyridine-6,4′-piperidin]-5-amine], for which, in assay [1], the IC50 was determined as 1.5 nM.
As to `Cc1nc(N2CCC3(CC2)CO[C@@H](C)[C@H]3N)n2ccnc2c1-c1cccc(Cl)c1Cl` (single isomer, unassigned) [The atropisomer with a RT of 2.716 minutes in Examples 3 and 4], in assay [1], the IC50 amounted to 61.7 nM.
On the same count and under the same terms, for `Cc1nc(N2CCC3(CC2)CO[C@@H](C)[C@H]3N)n2ccnc2c1-c1c(F)ccc(Cl)c1Cl` [Example 11, (3S,4S)-8-(8-(2,3-Dichloro-6-fluorophenyl)-7-methylimidazo[1,2-c]pyrimidin-5-yl)-3-methyl-2-oxa-8-azaspiro[4.5]decan-4-amine] the value was 41.1 nM.
As to `Cc1nc(N2CCC3(CC2)CO[C@@H](C)[C@H]3N)c(CO)nc1-c1cccc(Cl)c1Cl` [RMC4550, reference compound], the concentration for half-maximal inhibition (IC50) in the assay with p-ERK in KYSE-520 cells (2 hours) turned out to be 34.6 nM; in the assay on KYSE-520 cells it was 201 nM.
Turning to `Cc1nc(N2CCC3(CCC[C@H]3N)CC2)n2ccnc2c1-c1ccnc(Cl)c1Cl` [Example 5, (R)-8-(8-(2,3-Dichloropyridin-4-yl)-7-methylimidazo[1,2-c]pyrimidin-5-yl)-8-azaspiro[4.5]decan-1-amine], the IC50 in assay [1] stood at 2.9 nM.
On the same count and under the same terms, for `Cc1nc(N2CCC3(CCC[C@H]3N)CC2)n2ccnc2c1-c1ccc(OC(F)F)cc1Cl` [Example 7, (R)-8-(8-(2-Chloro-4-(difluoromethoxy)phenyl)-7-methylimidazo[1,2-c]pyrimidin-5-yl)-8-azaspiro[4.5]decan-1-amine] the value was 42.2 nM.
Take `Cc1nccc(Sc2c(N)nc(N3CCC4(CC3)CO[C@@H](C)[C@H]4N)n3ccnc23)c1Cl` [Example 25, (3S,4S)-8-(7-Amino-8-((3-chloro-2-methylpyridin-4-yl)thio)imidazo[1,2-c]pyrimidin-5-yl)-3-methyl-2-oxa-8-azaspiro[4.5]decan-4-amine]: the 50% inhibitory concentration (IC50) in assay [1] was found to be 5.2 nM; in the assay on p-ERK in KYSE-520 cells (Homo sapiens, KYSE-520, 2 h), 29.1 nM.
Regarding `C[C@@H]1OCC2(CCN(c3ncc(Sc4ccncc4C(F)(F)F)c4nccn34)CC2)[C@@H]1N` [Example 18, (3S,4S)-3-Methyl-8-(8-((3-(trifluoromethyl)pyridin-4-yl)thio)imidazo[1,2-c]pyrimidin-5-yl)-2-oxa-8-azaspiro[4.5]decan-4-amine], in assay [1], the IC50 is 8.6 nM.
Same read-out and setting: for `C[C@@H]1OCC2(CCN(c3nc(C(F)(F)F)c(Sc4cccnc4C(F)(F)F)c4nccn34)CC2)[C@@H]1N` [Example 13, (3S,4S)-3-Methyl-8-(7-(trifluoromethyl)-8-((2-(trifluoromethyl)pyridin-3-yl)thio)imidazo[1,2-c]pyrimidin-5-yl)-2-oxa-8-azaspiro[4.5]decan-4-amine] the value was 818 nM.

The record behind these values is US20220073521A1, “PYRIMIDINE AND FIVE-MEMBERED NITROGEN HETEROCYCLE DERIVATIVE, PREPARATION METHOD THEREFOR, AND MEDICAL USES THEREOF” (Tuojie Biotech (Shanghai) Co., Ltd., priority 2018, published 2022).
